Test results taken from ChEMBL document CHEMBL1201862, “PubChem BioAssay data set” (2004).
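Briefly, cells in 96-well plates were exposed to five compound concentrations for 48 h, and endpoints were estimated by linear interpolation. GI50 marks 50% less growth.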 The source made the active and inactive calls. No stated cut-off is given here; in the data, active = GI50 up to about 1.1 µM and inactive = higher.

Legend:
Test in all cases: inhibition of tumour cell growth, NCI panel, 48 h
EKVX = test system: EKVX
KM12 = test system: KM12
786-0 = test system: 786-0
OVCAR-8 = test system: OVCAR-8
HT-29 = test system: HT-29
RPMI-8226 = test system: RPMI-8226
SNB-75 = test system: SNB-75
NCI-H522 = test system: NCI-H522
K562 = test system: K562
HCC 2998 = test system: HCC 2998
NCI-H460 = test system: NCI-H460
SK-MEL-5 = test system: SK-MEL-5
SF-295 = test system: SF-295
HOP-62 = test system: HOP-62
OVCAR-4 = test system: OVCAR-4
SK-MEL-28 = test system: SK-MEL-28
DU-145 = test system: DU-145
HCT-116 = test system: HCT-116
SN12C = test system: SN12C
MDA-MB-435 = test system: MDA-MB-435
UO-31 = test system: UO-31
ACHN = test system: ACHN
CCRF-CEM = test system: CCRF-CEM
NCI/ADR-RES = test system: NCI/ADR-RES
Malme-3M = test system: Malme-3M
IGROV-1 = test system: IGROV-1
HCT-15 = test system: HCT-15
MDA-MB-231 = test system: MDA-MB-231
SK-OV-3 = test system: SK-OV-3
LOX IMVI = test system: LOX IMVI
UACC-257 = test system: UACC-257
BT-549 = test system: BT-549
A498 = test system: A498
TK-10 = test system: TK-10
OVCAR-3 = test system: OVCAR-3
MOLT-4 = test system: MOLT-4
MCF7 = test system: MCF7
OVCAR-5 = test system: OVCAR-5
SF-539 = test system: SF-539
SR = test system: SR
T47D = test system: T47D
COLO 205 = test system: COLO 205
SNB-19 = test system: SNB-19
U-251 = test system: U-251
UACC-62 = test system: UACC-62
HL-60 = test system: HL-60
NCI-H23 = test system: NCI-H23
HOP-92 = test system: HOP-92
MDA-N = test system: MDA-N
SK-MEL-2 = test system: SK-MEL-2
RXF 393 = test system: RXF 393
SF-268 = test system: SF-268
SW-620 = test system: SW-620
PC-3 = test system: PC-3
CAKI-1 = test system: CAKI-1
M14 = test system: M14
Hs-578T = test system: Hs-578T
A549 = test system: A549
NCI-H226 = test system: NCI-H226

Compound: O=C1c2cccnc2-c2nccc3c2c1nc1ccc(Br)cc13
- GI50 (EKVX): 94.8 nM (active)
- GI50 (KM12): 65.6 nM (active)
- GI50 (786-0): 24.8 nM (active)
- GI50 (OVCAR-8): 66.2 nM (active)
- GI50 (HT-29): 282 nM (active)
- GI50 (RPMI-8226): 34.7 nM (active)
- GI50 (SNB-75): 129 nM (active)
- GI50 (NCI-H522): 52.8 nM (active)
- GI50 (K562): 23.8 nM (active)
- GI50 (HCC 2998): 164 nM (active)
- GI50 (NCI-H460): 65 nM (active)
- GI50 (SK-MEL-5): 24.7 nM (active)
- GI50 (SF-295): 40.1 nM (active)
- GI50 (HOP-62): 31 nM (active)
- GI50 (OVCAR-4): 61 nM (active)
- GI50 (SK-MEL-28): 25.2 nM (active)
- GI50 (DU-145): 22.5 nM (active)
- GI50 (HCT-116): < 13.6 nM (active)
- GI50 (SN12C): 48.2 nM (active)
- GI50 (MDA-MB-435): 88.7 nM (active)
- GI50 (UO-31): 55.7 nM (active)
- GI50 (ACHN): 26.3 nM (active)
- GI50 (CCRF-CEM): < 10 nM (active)
- GI50 (NCI/ADR-RES): 34 nM (active)
- GI50 (Malme-3M): 102 nM (active)
- GI50 (IGROV-1): 38 nM (active)
- GI50 (HCT-15): 45 nM
- GI50 (MDA-MB-231): < 20.1 nM (active)
- GI50 (SK-OV-3): 145 nM (active)
- GI50 (LOX IMVI): 22.1 nM (active)
- GI50 (UACC-257): 53.6 nM (active)
- GI50 (BT-549): 33.7 nM (active)
- GI50 (A498): 85.3 nM (active)
- GI50 (TK-10): 273 nM (active)
- GI50 (OVCAR-3): 20.7 nM (active)
- GI50 (MOLT-4): 184 nM (active)
- GI50 (MCF7): < 16.2 nM (active)
- GI50 (OVCAR-5): 106 nM (active)
- GI50 (SF-539): 60.1 nM (active)
- GI50 (SR): 12 nM (active)
- GI50 (T47D): 78.9 nM (active)
- GI50 (COLO 205): 438 nM (active)
- GI50 (SNB-19): 136 nM (active)
- GI50 (U-251): 36.3 nM (active)
- GI50 (UACC-62): 56.9 nM (active)
- GI50 (HL-60): 18.4 nM (active)
- GI50 (NCI-H23): 31.3 nM (active)
- GI50 (HOP-92): 102 nM (active)
- GI50 (MDA-N): 109 nM (active)
- GI50 (SK-MEL-2): 72.6 nM (active)
- GI50 (RXF 393): 18.4 nM (active)
- GI50 (SF-268): 24.2 nM (active)
- GI50 (SW-620): 40.4 nM (active)
- GI50 (PC-3): 42.6 nM (active)
- GI50 (CAKI-1): 53.6 nM (active)
- GI50 (M14): 24.3 nM (active)
- GI50 (Hs-578T): 120 nM (active)
- GI50 (A549): 188 nM (active)
- GI50 (NCI-H226): 19.9 nM (active)

Compound: COc1cccc2c(=O)oc(-c3ccccc3C)nc12
- GI50 (EKVX): > 100000 nM (inactive)
- GI50 (KM12): 38000 nM (inactive)
- GI50 (786-0): 44800 nM (inactive)
- GI50 (OVCAR-8): 48800 nM (inactive)
- GI50 (HT-29): 39000 nM (inactive)
- GI50 (RPMI-8226): 38200 nM (inactive)
- GI50 (SNB-75): > 100000 nM (inactive)
- GI50 (NCI-H522): 46900 nM (inactive)
- GI50 (K562): 39800 nM (inactive)
- GI50 (HCC 2998): 35000 nM (inactive)
- GI50 (NCI-H460): 56900 nM (inactive)
- GI50 (SK-MEL-5): 23000 nM (inactive)
- GI50 (SF-295): 42600 nM (inactive)
- GI50 (HOP-62): 27300 nM (inactive)
- GI50 (OVCAR-4): 22700 nM (inactive)
- GI50 (SK-MEL-28): 29300 nM (inactive)
- GI50 (DU-145): 61000 nM (inactive)
- GI50 (HCT-116): 29500 nM (inactive)
- GI50 (SN12C): 26500 nM (inactive)
- GI50 (MDA-MB-435): 33600 nM (inactive)
- GI50 (UO-31): 58300 nM (inactive)
- GI50 (ACHN): 43000 nM (inactive)
- GI50 (CCRF-CEM): 25900 nM (inactive)
- GI50 (NCI/ADR-RES): 29200 nM (inactive)
- GI50 (Malme-3M): 42200 nM (inactive)
- GI50 (IGROV-1): 18700 nM (inactive)
- GI50 (HCT-15): 43900 nM
- GI50 (MDA-MB-231): 63700 nM (inactive)
- GI50 (SK-OV-3): > 100000 nM (inactive)
- GI50 (LOX IMVI): 18300 nM (inactive)
- GI50 (BT-549): 21500 nM (inactive)
- GI50 (A498): > 100000 nM (inactive)
- GI50 (TK-10): > 100000 nM (inactive)
- GI50 (OVCAR-3): 29000 nM (inactive)
- GI50 (MOLT-4): 26700 nM (inactive)
- GI50 (MCF7): 33700 nM (inactive)
- GI50 (OVCAR-5): 61400 nM (inactive)
- GI50 (SF-539): 25500 nM (inactive)
- GI50 (SR): 49400 nM (inactive)
- GI50 (T47D): > 100000 nM (inactive)
- GI50 (COLO 205): 39800 nM (inactive)
- GI50 (U-251): 45400 nM (inactive)
- GI50 (UACC-62): 62100 nM (inactive)
- GI50 (HL-60): 32000 nM (inactive)
- GI50 (NCI-H23): 61400 nM (inactive)
- GI50 (HOP-92): > 100000 nM (inactive)
- GI50 (MDA-N): 19800 nM (inactive)
- GI50 (SK-MEL-2): 26600 nM (inactive)
- GI50 (RXF 393): 30000 nM (inactive)
- GI50 (SF-268): 43300 nM (inactive)
- GI50 (SW-620): 40600 nM (inactive)
- GI50 (PC-3): 35700 nM (inactive)
- GI50 (CAKI-1): 35200 nM (inactive)
- GI50 (Hs-578T): 43500 nM (inactive)
- GI50 (A549): 38200 nM (inactive)
- GI50 (NCI-H226): 19500 nM (inactive)

Compound: [O-]c1c2cc(-[n+]3c(-c4ccccc4)cc(-c4ccccc4)cc3-c3ccccc3)cc1CO[C@@H](c1ccccc1)[C@H](c1ccccc1)OCCOCCO[C@@H](c1ccccc1)[C@H](c1ccccc1)OC2
- GI50 (EKVX): 109 nM (active)
- GI50 (KM12): 44.4 nM (active)
- GI50 (786-0): 44.8 nM (active)
- GI50 (OVCAR-8): 35.1 nM (active)
- GI50 (HT-29): 38.6 nM (active)
- GI50 (RPMI-8226): 17.6 nM (active)
- GI50 (SNB-75): 48.6 nM (active)
- GI50 (NCI-H522): 26.4 nM (active)
- GI50 (K562): 28.4 nM (active)
- GI50 (HCC 2998): 181 nM (active)
- GI50 (NCI-H460): 36.3 nM (active)
- GI50 (SK-MEL-5): 30 nM (active)
- GI50 (SF-295): 71.9 nM (active)
- GI50 (HOP-62): 129 nM (active)
- GI50 (OVCAR-4): 107 nM (active)
- GI50 (SK-MEL-28): 475 nM (active)
- GI50 (DU-145): 284 nM (active)
- GI50 (HCT-116): 36.2 nM (active)
- GI50 (SN12C): 39.8 nM (active)
- GI50 (MDA-MB-435): 49 nM (active)
- GI50 (UO-31): 379 nM (active)
- GI50 (ACHN): 167 nM (active)
- GI50 (CCRF-CEM): 48 nM (active)
- GI50 (NCI/ADR-RES): 1140 nM (inactive)
- GI50 (Malme-3M): 40.7 nM (active)
- GI50 (IGROV-1): 45.5 nM (active)
- GI50 (HCT-15): 319 nM
- GI50 (MDA-MB-231): 104 nM (active)
- GI50 (SK-OV-3): 50.2 nM (active)
- GI50 (LOX IMVI): 57.7 nM (active)
- GI50 (UACC-257): 106 nM (active)
- GI50 (BT-549): 35.6 nM (active)
- GI50 (A498): 500 nM (active)
- GI50 (TK-10): 240 nM (active)
- GI50 (OVCAR-3): 32.4 nM (active)
- GI50 (MOLT-4): 39.7 nM (active)
- GI50 (MCF7): 38.2 nM (active)
- GI50 (OVCAR-5): 453 nM (active)
- GI50 (SF-539): 408 nM (active)
- GI50 (SR): 30.9 nM (active)
- GI50 (T47D): 34.4 nM (active)
- GI50 (COLO 205): 19.5 nM (active)
- GI50 (SNB-19): 48.9 nM (active)
- GI50 (U-251): 29.7 nM (active)
- GI50 (UACC-62): 57.7 nM (active)
- GI50 (HL-60): 20.4 nM (active)
- GI50 (NCI-H23): 57.4 nM (active)
- GI50 (HOP-92): 85.7 nM (active)
- GI50 (MDA-N): 42.6 nM (active)
- GI50 (SK-MEL-2): 39.4 nM (active)
- GI50 (RXF 393): 108 nM (active)
- GI50 (SF-268): 63.5 nM (active)
- GI50 (SW-620): 56.2 nM (active)
- GI50 (PC-3): 39 nM (active)
- GI50 (CAKI-1): 335 nM (active)
- GI50 (M14): 68.7 nM (active)
- GI50 (Hs-578T): 65.2 nM (active)
- GI50 (A549): 45.1 nM (active)
- GI50 (NCI-H226): 88.5 nM (active)
